Measured values taken from patent publication US20120214874A1, “PHARMACEUTICAL FORMULATIONS AND METHODS OF USE” (Nuvo Research Inc., priority 2009, published 2012).

Assay: pH measurement of formulations and panthenol solutions (Experiments A-C, E)
Type: physicochemical
Description: Experiment A: AMP (0.0006%) was added to NRI-ANA-14 to replicate the AMP concentration in NRI-ANA-08. After AMP addition, the pH of NRI-ANA-08 was 4.1, and the pH of NRI-ANA-14 (+0.0006% AMP) was 4.2. This supported the hypothesis.
Experiment B: AMP (0.012%) was added to NRI-ANA-14 to replicate the AMP concentration in NRI-ANA-13. After AMP addition, the pH of NRI-ANA-13 was 4.8, and the pH of NRI-ANA-14 (+0.012% AMP) was 4.8. This supported the hypothesis.
Experiment C: A modified NRI-ANA-14 formulation containing 1.3% TEC and citric acid equivalent to 0.7% TEC was prepared. A control NRI-ANA-14 formulation was subjected to a stability study according to the method set forth in Example 19. After six months at 40° C., the pH of the control NRI-ANA-14 formulation was 2.6, while the pH of the modified NRI-ANA-14 formulation was 1.6. This supported the hypothesis.
Experiment E: The pH of 10% aqueous solution of D,L- and D-panthenol were measured. The pH of 10% D,L-panthenol was 6.7, but the pH of 10% D-panthenol was 9.4. This supported the hypothesis.

Substance	pH of 10% aqueous solution
2,4-dihydroxy-N-(3-hydroxypropyl)-3,3-dimethyl-butanamide [D,L-panthenol]	6.7
(2R)-2,4- dihydroxy-N- (3- hydroxy- propyl)-2,3,3- trimethyl- butanamide [D-panthenol]	9.4
